In series [1] the target is T1, Aβ42 oligomers (Homo sapiens, UniProt P05067).
T1 construct: commercial Aβ42 monomer powder (from GL biochem); purchased GL biochem
Kind of series: Fluorescence saturation binding assay with Aβ42 oligomers. Particulars: for Kd: read-out: Kd, Oligomers. The protocol:
Aβ42 oligomers: The 0.5 mg monomeric films were dissolved in 1.1 mL PBS buffer (with final DMSO concentration less than 1%) and incubated at 4° C. overnight. The resulting solution was then centrifuged at 3000 rpm for 15 mins to remove the insoluble aggregates. The clear supernatant was then used for the following experiments. Aβ42 oligomers concentration was checked by measuring the absorbance of the supernatant at 280 nm.
(§1) In Vitro Saturation Binding Studies with Aβ42 Fibrils and Aβ42 Oligomers. To a solution of increasing concentrations of compounds, a fixed concentration of the generated aggregated Aβ42 fibrils or Aβ42 oligomers solutions (5 to 15 NM) was added to yield a total volume of 100 μL. Nonspecific binding was determined […]. The mixture was incubated for 15 min at room temperature. All fluorescence data were obtained on a SpectraMax M2e plate reader (Molecular Devices). The fluorescent intensity was measured at the corresponding emission wavelength of each compound, and the Kd binding curves were generated by GraphPad Prism 8.0 with one site-specific binding model. Equation: Y=Bmax*X/(Kd+X).

In series [2] the target is T2, native Aβ species in 5×FAD mice brain sections (Homo sapiens, UniProt P05067).
T2 construct: from tissue; host or cells: brain sections of 5×FAD transgenic mice
Put plainly: Fluorescence staining of 5×FAD mice brain sections, colocalization. On the set-up: species or system mouse. The conditions noted are these: 5×FAD brain sections, compared with ThS. How it is done:
Histological Staining of 5×FAD Mice Brain Sections. 5×FAD transgenic mice brain sections were blocked with bovine serum albumin (2% BSA in PBS, pH 7.4, 10 min). Then the mice brain sections were transferred to a PBS solution of the compound and incubated for 1 h. […] Then, the brain sections were treated with BSA again (5 min) followed by washing with PBS (3×2 min), DI water (3×2 min). Finally, the mice brain sections were mounted with non-fluorescent mounting media, and the images were obtained by using EVOS FL Auto 2. ImageJ Fiji program was used for colocalization analysis and determination of the Pearson's correlation coefficient. The primary antibodies were labeled with dye CF594 via Mix-n-Stain™ CF™ 594 Antibody Labeling Kit (Sigma Aldrich).

A short description of series [3]: Log D by octanol-PBS partition. Type of series: physicochemical. Particulars: DCM compounds. How it is done:
Log D measurements. The Log D value was measured following a published procedure using slight modifications. In general, compounds in 0.5 mL octanol was subjected to partition with 0.5 mL octanol-saturated PBS. The whole mixture was stirred vigorously for 5 min, and centrifuged at 2,000 rpm for 5 min. The top octanol layer was separated for later fluorescence measurement. The remaining PBS layer was partitioned with 0.5 mL PBS-saturated octanol, and the second top octanol layer was then separated after vigorous stirring and centrifuging at 2,000 rpm for another 5 min. The two octanol layers' fluorescence spectra were recorded. The log D value was calculated by the fluorescence intensity ratio at the compounds' emission wavelength for the above two octanol extractions.

In series [4] the target is T3, Aβ42 fibrils (Homo sapiens, UniProt P05067).
T3 construct: commercial Aβ42 monomer powder (from GL biochem); purchased GL biochem
Put plainly: Fluorescence saturation binding assay with Aβ42 fibrils. The conditions noted are these: read-out: Kd, Fibrils. How it is done: Preparation of the Aβ42 Fibrils and Aβ42 Oligomers. Aβ42 fibrils: 1 mg of commercial Aβ42 monomer powder (from GL biochem) was dissolved in 1 mL 1,1,1,3,3,3-hexafluoro-2-propanol (HFIP) at room temperature and incubated for 1 h. The resulting solution was divided equally into two Eppendorf tubes. The solution in each Eppendorf tube containing 0.5 mg Aβ42 monomer was then evaporated overnight and dried by vacuum centrifuge to generate monomeric films. […] Aβ42 fibrils solution was prepared by dissolving the 0.5 mg monomeric films in 1.1 mL PBS buffer (with final DMSO concentration less than 1%) and stirring at 37° C. for 3 days.
as §1

Series [5] has as its system interactions between Aβ oligomers and SH-SY5Y cell membranes. Kind of series: Confocal imaging of Aβ oligomers binding to SH-SY5Y cell membranes. Particulars: 5 μM Aβ oligomers, 5 μM compound, 24 h. The class given is cell-based, human. The protocol:
(§2) Cell Imaging Procedures. For oligomers and fibrils imaging: Human neuroblastoma SH-SY5Y cells were grown with DMEM/10% FBS at 37° C. in a humidified atmosphere with 5% CO2, and an 8-well μ-slides (ibidi) chambered coverslip was seeded the SH-SY5Y cells. At about 80% confluency (24 h after seeding), the cells were treated with DMSO as control group, 5 μM oligomers/fibrils and 5 μM (oligomers/fibrils+ compounds), respectively. After 24 h incubation, the media was removed from each well. The cells were then fixed with 200 μL 3.7% formaldehyde for 15 min and blocked with 200 μL 3% BSA for 10 min. 3% BSA was then removed from the cells and replaced with 100 μL CF594-HJ 3.4 (1 μg/mL in 3% BSA). The cells were incubated with CF594-HJ 3.4 for 2 h at room temperature and were washed with PBS (5×100 μL). Before imaging, the cells in each well were stained with 100 μL NucBlue reagent (Thermo Fisher Scientific) for 15 min and mounted with non-fluorescent mounting media. 5-10 images of each well were taken, and the images were processed and analyzed by Fiji and Zeiss Zen lite software. Three individual replicates were conducted and subjected to the statistical analysis.

Series [6] concerns Cu^2+-Aβ42-induced toxicity in Neuro2A cells. Kind of series: Cu2+-Aβ42-induced toxicity, Alamar blue cell viability. The class given is cell-based, mouse. The conditions noted are these: [Aβ42]=40 μM, [Cu^2+]=40 μM, compound 10 μM (ZY-12-OMe 5 μM). How it is done:
FIG. 6. Cell viability results upon incubation of Neuro2A cells with monomeric Aβ42 in the presence or absence of metal ions and amphiphilic compounds. Concentrations: [Aβ42]=40 μM, [Cu^2+]=40 μM, [ZY-12-MT]=[ZY-15-OMe]=[ZY-15-MT]=[ZY-17-MT]=[ZY-5-OMe]=[ZY-5-MT]=[ZY-5-DT]=10 μM, [ZY-12-OMe]=5 μM. The error bars represent the standard deviation from five independent experiments, and the statistical analysis was evaluated according to one-way ANOVA (*p<0.05).
For the Cu^2+-Ap-induced toxicity studies, cells treated were monomeric Aβ42, Cu^2+, monomeric Aβ42+Cu^2+, and monomeric Aβ42+Cu^2++ compounds, respectively. After 40 h incubation, Alamar Blue solution (10 μL) was added, and the cells were incubated for another 90 min at 37° C. The fluorescence intensity of each well was measured at 590 nm (excitation wavelength=560 nm).

Series [7] deals with interactions between Cu-Aβ species and SH-SY5Y cell membranes. Put plainly: Confocal imaging of Cu-Aβ species binding to SH-SY5Y cell membranes. Type of series: cell-based, human. The conditions noted are these: 5 μM Aβ monomers + Cu^2+ + compound, 48 h. How it is done:
For monomers +Cu^2+ imaging: SH-5Y5Y were seeded as mentioned above, and cells were treated with DMSO as control group, 5 μM monomers, 5 μM (monomers +CuCl2) and 5 μM (monomers +CuCl2+compounds) respectively. After 48 h incubation, cells were treated and imaged the same way as mentioned above.

In series [8] the test system is interactions between Aβ fibrils and SH-SY5Y cell membranes. Kind of series: Confocal imaging of Aβ fibrils binding to SH-SY5Y cell membranes. The class given is cell-based, human. Particulars: 5 μM fibrils, 5 μM compound, 24 h. The protocol: as §2

Molecules are shown by their SMILES. Like-named read-outs stand apart in the source and are kept apart here.

T1 sequence (P05067 672-713 limits assumed): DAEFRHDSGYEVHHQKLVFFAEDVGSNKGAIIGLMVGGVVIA
T3 sequence (P05067 672-713 limits assumed): as above
T2 sequence (P05067 672-713 limits assumed): as above

As for `CN1CCN(C)CCN(Cc2cc(/C=C/C=C/C3=CC(=C(C#N)C#N)c4ccccc4O3)ccc2O)CC1` [DCM-OH-2-MT, 2-(2-((1E,3E)-4-(3-((4,7-dimethyl-1,4,7-triazonan-1-yl)methyl)-4-hydroxyphenyl)buta-1,3-dien-1-yl)-4H-chromen-4-ylidene)malononitrile], the “binding affinity towards Aβ42 oligomers over fibrils” value in series [1] (DCM compounds) was “three times higher binding affinity towards Aβ42 oligomers over fibrils”. The Kd was 230 ± 30 nM in series [1] (Table 3, DCM compounds) and 780 ± 110 nM in series [4] (Table 3, DCM compounds). Moreover, the “region of Aβ aggregates bound” value in series [2] was “bind to the peripheral region of the Aβ aggregates”. Further, the logD in series [3] came out at 1.13 ± 0.16.

With `CN1CCN(C)CCN(Cc2cc(/C=C/c3ccc(-c4ccc(C=O)cc4)s3)ccc2O)CC1` [ZY-15-MT, (E)-4-(5-(3-((4,7-dimethyl-1,4,7-triazonan-1-yl)methyl)-4-hydroxystyryl)thiophen-2-yl)benzaldehyde], the “Aβ oligomers bound to cell membranes” value in series [5] is “fewer numbers of Aβ oligomers bound to the cell membranes”. Also, in series [6], the “effect on cell viability under Cu^2+-Aβ42 toxicity” value is listed as “significantly increase cell viability”. Also, the Kd in series [1] (Table 1, amphiphilic compounds) stood at 2030 ± 110 nM; in series [4] (Table 1, amphiphilic compounds) it was 530 ± 30 nM. In addition, in series [7], the “Cu-Aβ species interactions with cell membranes” value was “significantly decreased interactions with cell membranes”. The “Aβ fibrils binding to cell membranes” value in series [8] is “not able to significantly decrease the numbers of the Aβ fibrils binding to cell membranes”.

For `COc1cc(/C=C/c2ccc(-c3ccc(C=O)cc3)s2)cc(CN2CCN(C)CCN(C)CC2)c1O` [ZY-15-OMe, (E)-4-(5-(3-((4,7-dimethyl-1,4,7-triazonan-1-yl)methyl)-4-hydroxy-5-methoxystyryl)thiophen-2-yl)benzaldehyde], the “Aβ oligomers bound to cell membranes” value in series [5] is given as “fewer numbers of Aβ oligomers bound to the cell membranes”. Also, the “effect on cell viability under Cu^2+-Aβ42 toxicity” value in series [6] is reported as “significantly increase cell viability”. For the same molecule, the Kd in series [1] (Table 1, amphiphilic compounds) worked out at 470 ± 130 nM; in series [4] (Table 1, amphiphilic compounds), 1240 ± 180 nM. Moreover, the “binding affinity to oligomers compared with fibrils (Kd comparison)” value in series [1] (amphiphilic ZY compounds) is recorded as “higher binding affinity to oligomers over fibrils”. Also, the “Cu-Aβ species interactions with cell membranes” value in series [7] is “significantly decreased interactions with cell membranes”. The “Aβ fibrils binding to cell membranes” value in series [8] is “not able to significantly decrease the numbers of the Aβ fibrils binding to cell membranes”.

Broadly, the Kd is the equilibrium constant for the complex coming apart. For orientation: logD means the decadic logarithm of the distribution of all forms, ionised or not, between an organic phase and buffer at a given pH. Low values mean a more hydrophilic compound, high ones a more lipophilic compound.

(Values after patent US20260027243A1, “AMPHIPHILIC COMPOUNDS FOR ATTENUATING NEUROTOXICITY OF AMYLOID-beta OLIGOMERS AND DIAGNOSTIC METHODS” (THE BOARD OF TRUSTEES OF THE UNIVERSITY OF ILLINOIS, priority 2022, published 2026).)
